{
  "source": "PubChem BioAssay AID1918955",
  "about": "(Molecular Pharmacology Branch, DTP, NCI, 2023)",
  "system": "NCI/ADR-RES complex spheroid viability",
  "assay": "Anticancer human tumor NCI/ADR-RES cell line growth inhibition;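 also: spheroids exposed to compounds for 7 days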;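 as to viability, T/C: 100% = DMSO vehicle treated spheroids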",
  "conditions": "for viability, T/C: stronger effect = lower value",
  "excerpt": "Multicellular complex tumor spheroid response to LSD1 Inhibitor Iadademstat in combination with a variety of drugs and investigational agents in selected tumor cell lines\nThe current study was undertaken to assess response to LSD1 inhibitors in combination with standard-of-care drugs and investigational agents in solid tumor complex spheroid models as well as in the K-562 leukemia. Complex spheroids include a stromal component modeled by human endothelial cells (HUVEC) and fibroblasts modeled by human mesenchymal stem cells (MSCs). The concentration ranges selected for each drug and investigational agent were based upon clinically achievable concentrations if the clinical Cmax of the agent was known.\nCompounds. The drugs and investigational agents used in this study are listed on Table 1. All of the agents used, including staurosporine (NSC755774) and gemcitabine (NSC613327), were obtained from the Developmental Therapeutics Program, NCI. FDA-approved anticancer drugs are available from the NCI at http://dtp.nci.nih.gov/branches/dscb/oncology_drugset_explanation.html. Drugs and investigational agents were >95% pure by proton nuclear magnetic resonance (NMR) and liquid chromatography/mass spectrometry (LC/MS). Stock solutions were prepared at 400x in DMSO, stored at -70 degrees C, and diluted in fresh medium prior to their use. The final concentration of DMSO in cell culture wells never exceeded 0.25% (v/v). The FDA-approved anticancer drug set is available from the Developmental Therapeutics Program at https://dtp.cancer.gov/organization/dscb/obtaining/available_plates.htm. All drugs and investigational agents were tested over a range starting from a high concentration at or near the clinical Cmax and decreasing in half-log increments. If the clinical Cmax for an agent had not been determined, the highest concentration tested was 10 microM.\nCell Lines. The patient-derived cancer cell (PDC) lines: 292921-168-R-J2-PDC, K24384-001-R-PDC, and 521955-158-R2-J5-PDC pancreatic carcinomas, 556581-035-R-J1 ovarian carcinoma, 324938-238-R-J1-PDC, 855422-203-R-J1-PDC and 883617-216-R-J1-PDC urothelial bladder carcinomas, 743489-274-T-PDC renal cell carcinoma, 138582-R-J1 Merkel cell tumor, K60290-347-R-J1 and K57222-313-R-J1-PDC glioblastomas, 653999-131-R-J2-PDC, LG0703-F948-PDC, and 349418-098-R-PDC non-small cell lung carcinomas, 885512-296-R-J2-PDC, 171881-019-R-J1-PDC breast carcinomas and 186277-243-T-J2-PDC and 233499-124-R-J2-PDC colon carcinomas were obtained from the NCI Patient-Derived Models Repository (PDMR, https://pdmr.cancer.gov). The established cell lines NCI/ADR-RES (RRID:CVCL_14520 and OVCAR-5 (RRID:CVCL_1628) ovarian carcinomas, 786-O (RRID:CVCL_1051) and A498 (RRID:CVCL_A498) renal cell carcinoma, NCI-H211 (ATCC, cat. CRL-5824; RRID:CVCL_1529), NCI-H196 (ATCC, cat. CRL-5823, RRID:CVCL_1509), SW 1271 (ATCC, cat. CRL-2177, RRID:CVCL_1716) and NCI-H1876 (ATCC, cat. CRL-5902, RRID:CVCL_1503) small cell lung carcinomas, MDA-MB-231 (RRID:CVCL_0062) and MDA-MB-468 (RRID:CVCL_0419)breast carcinomas (10-12). Pooled donor human umbilical vein endothelial cells (HUVEC, Lonza, cat. CC-2519) and human mesenchymal stem cells (hMSC, Lonza, cat. PT-2501) were purchased from Lonza (Walkersville, MD).\nCell Culture. All cells were maintained in an incubator at 37 degrees C and 5% CO2 with 95% humidity. The PDC lines were cultured according to standard operating procedures established by the NCI PDMR (https://pdmr.cancer.gov). Briefly all PDCs were thawed and cultured in Matrigel-coated flasks prepared with a working solution of 1X Ham's F-12 nutrient mix, without supplementation (Invitrogen, Waltham, MA, cat. 11765054), 100 U/mL penicillin-streptomycin (Invitrogen, cat. 15140122), and 2.5% Matrigel (Corning Inc., Corning, NY, cat. 354248) for the first three passages. […]",
  "note": "Where “and” joins values, the source holds several entries; their conditions need not be identical. Equal values may be shown once.",
  "data": [
    {"smiles": "O=C(C=Cn1cnc(-c2cc(C(F)(F)F)cc(C(F)(F)F)c2)n1)NNc1cnccn1", "values": [
      {"measurement": "viability, T/C", "setting": "compound 0.00316 µM", "result": "69.8% and 61.6%"},
      {"measurement": "viability, T/C", "setting": "compound 0.01 µM", "result": "28.8% and 22.1%"},
      {"measurement": "viability, T/C", "setting": "compound 0.0316 µM", "result": "20.3% and 16.5%"},
      {"measurement": "viability, T/C", "setting": "compound 0.1 µM", "result": "10.6% and 5.99%"},
      {"measurement": "viability, T/C", "setting": "compound 0.316 µM", "result": "6.07% and 1.5%"},
      {"measurement": "viability, T/C", "setting": "compound 1 µM", "result": "2.27% and 0.91%"},
      {"measurement": "IC50", "setting": "curve of compound", "result": "5.78 nM and 4.49 nM"}
    ]},
    {"smiles": "O=C(C=Cc1cccc(S(=O)(=O)Nc2ccccc2)c1)NO", "values": [
      {"measurement": "viability, T/C", "setting": "compound 0.00949 µM", "result": "95.3% and 96%"},
      {"measurement": "viability, T/C", "setting": "compound 0.03 µM", "result": "81.6% and 75.3%"},
      {"measurement": "viability, T/C", "setting": "compound 0.0949 µM", "result": "36.6% and 42%"},
      {"measurement": "viability, T/C", "setting": "compound 0.3 µM", "result": "16.7% and 17.2%"},
      {"measurement": "viability, T/C", "setting": "compound 0.949 µM", "result": "7.77% and 6.17%"},
      {"measurement": "viability, T/C", "setting": "compound 3 µM", "result": "2.68% and 1.54%"},
      {"measurement": "IC50", "setting": "curve of compound", "result": "69.7 nM and 72.5 nM"}
    ]},
    {"smiles": "CC1COCCN1c1cc(C2(S(C)(=N)=O)CC2)nc(-c2ccnc3[nH]ccc23)n1", "note": "(stereo unspecified)", "values": [
      {"measurement": "viability, T/C", "setting": "compound 0.0316 µM", "result": "101% and 106%"},
      {"measurement": "viability, T/C", "setting": "compound 0.1 µM", "result": "96% and 110%"},
      {"measurement": "viability, T/C", "setting": "compound 0.316 µM", "result": "93.8% and 98.5%"},
      {"measurement": "viability, T/C", "setting": "compound 1 µM", "result": "91.3% and 86.3%"},
      {"measurement": "viability, T/C", "setting": "compound 3.16 µM", "result": "72% and 71.1%"},
      {"measurement": "viability, T/C", "setting": "compound 10 µM", "result": "57.2% and 43.1%"},
      {"measurement": "IC50", "setting": "curve of compound", "result": "> 10000 nM and 7480 nM"}
    ]},
    {"smiles": "O=C(C=Cc1cccc(S(=O)(=O)Nc2ccccc2)c1)NO", "note": "+ NC1CCC(NC2CC2c2ccccc2)CC1", "values": [
      {"measurement": "IC50", "setting": "curve of first compound, second compound 0.1 µM", "result": 82.2, "unit": "nM"},
      {"measurement": "IC50", "setting": "curve of first compound, second compound 0.316 µM", "result": 78.1, "unit": "nM"},
      {"measurement": "IC50", "setting": "curve of first compound, second compound 1 µM", "result": 78.3, "unit": "nM"},
      {"measurement": "IC50", "setting": "curve of first compound, second compound 3.16 µM", "result": 76.7, "unit": "nM"},
      {"measurement": "IC50", "setting": "curve of first compound, second compound 10 µM", "result": 29.8, "unit": "nM"},
      {"measurement": "viability, T/C", "setting": "second compound 0.1 µM, first compound 0.00949 µM", "result": 99.7, "unit": "%"},
      {"measurement": "viability, T/C", "setting": "second compound 0.1 µM, first compound 0.03 µM", "result": 85.7, "unit": "%"},
      {"measurement": "viability, T/C", "setting": "second compound 0.1 µM, first compound 0.0949 µM", "result": 39.4, "unit": "%"},
      {"measurement": "viability, T/C", "setting": "second compound 0.1 µM, first compound 0.3 µM", "result": 24.7, "unit": "%"},
      {"measurement": "viability, T/C", "setting": "second compound 0.1 µM, first compound 0.949 µM", "result": 9.06, "unit": "%"},
      {"measurement": "viability, T/C", "setting": "second compound 0.1 µM, first compound 3 µM", "result": 2.6, "unit": "%"},
      {"measurement": "viability, T/C", "setting": "second compound 0.316 µM, first compound 0.00949 µM", "result": 97.1, "unit": "%"},
      {"measurement": "viability, T/C", "setting": "second compound 0.316 µM, first compound 0.03 µM", "result": 85.2, "unit": "%"},
      {"measurement": "viability, T/C", "setting": "second compound 0.316 µM, first compound 0.0949 µM", "result": 40.7, "unit": "%"},
      {"measurement": "viability, T/C", "setting": "second compound 0.316 µM, first compound 0.3 µM", "result": 17.5, "unit": "%"},
      {"measurement": "viability, T/C", "setting": "second compound 0.316 µM, first compound 0.949 µM", "result": 7.56, "unit": "%"},
      {"measurement": "viability, T/C", "setting": "second compound 0.316 µM, first compound 3 µM", "result": 2.59, "unit": "%"},
      {"measurement": "viability, T/C", "setting": "second compound 1 µM, first compound 0.00949 µM", "result": 104, "unit": "%"},
      {"measurement": "viability, T/C", "setting": "second compound 1 µM, first compound 0.03 µM", "result": 82, "unit": "%"},
      {"measurement": "viability, T/C", "setting": "second compound 1 µM, first compound 0.0949 µM", "result": 41.5, "unit": "%"},
      {"measurement": "viability, T/C", "setting": "second compound 1 µM, first compound 0.3 µM", "result": 19.4, "unit": "%"},
      {"measurement": "viability, T/C", "setting": "second compound 1 µM, first compound 0.949 µM", "result": 10.1, "unit": "%"},
      {"measurement": "viability, T/C", "setting": "second compound 1 µM, first compound 3 µM", "result": 1.53, "unit": "%"},
      {"measurement": "viability, T/C", "setting": "second compound 3.16 µM, first compound 0.00949 µM", "result": 95.6, "unit": "%"},
      {"measurement": "viability, T/C", "setting": "second compound 3.16 µM, first compound 0.03 µM", "result": 78.7, "unit": "%"},
      {"measurement": "viability, T/C", "setting": "second compound 3.16 µM, first compound 0.0949 µM", "result": 42.9, "unit": "%"},
      {"measurement": "viability, T/C", "setting": "second compound 3.16 µM, first compound 0.3 µM", "result": 17.8, "unit": "%"},
      {"measurement": "viability, T/C", "setting": "second compound 3.16 µM, first compound 0.949 µM", "result": 8.22, "unit": "%"},
      {"measurement": "viability, T/C", "setting": "second compound 3.16 µM, first compound 3 µM", "result": 5.29, "unit": "%"},
      {"measurement": "viability, T/C", "setting": "second compound 10 µM, first compound 0.00949 µM", "result": 75.2, "unit": "%"},
      {"measurement": "viability, T/C", "setting": "second compound 10 µM, first compound 0.03 µM", "result": 47.6, "unit": "%"},
      {"measurement": "viability, T/C", "setting": "second compound 10 µM, first compound 0.0949 µM", "result": 34.4, "unit": "%"},
      {"measurement": "viability, T/C", "setting": "second compound 10 µM, first compound 0.3 µM", "result": 16.6, "unit": "%"},
      {"measurement": "viability, T/C", "setting": "second compound 10 µM, first compound 0.949 µM", "result": 6.54, "unit": "%"},
      {"measurement": "viability, T/C", "setting": "second compound 10 µM, first compound 3 µM", "result": 6.09, "unit": "%"}
    ]}
  ]
}
